Measured values published in patent US11014947B2, “Lipophenol compounds and uses thereof” (INSTITUT NATIONAL DE LA SANTE ET DE LA RECHERCHE MEDICALE …, priority 2014, dated 2021).
Read-outs that look alike come from different tables or passages of the source.

What was measured:
complexes CI and CII = assay: Mitochondrial respiration in ARPE-19 cell line (oxygraph); assay type: cell-based
Description: Oxidative stress originates from physiological reactions taking place practically inside each cell of an organism. The production of reactive oxygen species (ROS) accompanies, for example, oxidative phosphorylation-derived ATP-based energy metabolism which takes place in the mitochondria of a cell. Under physiological conditions, ROS are neutralized by effective enzymatic and non-enzymatic defense mechanisms, contributing to the maintenance of a proper balance. However, an excess of ROS, resulting from their overproduction in pathophysiological conditions, will disturb the equilibrium and lead eventually to deleterious consequences for the cell. Maeda et al. (JBC 284(22), 2009) have reported that atRal impairs mitochondrial oxidative phosphorylation. Therefore, mitochondrial respiration was measured in ARPE-19 cell line using oxygraph after exposure to 25 μM atRal and/or 40 μM 13b (FIG. 3).

ARPE-19 = assay: atRAL-induced cell death, Annexin V-FITC / propidium iodide flow cytometry; assay type: cell-based; conditions: 4 h
Protocol: Further investigations were made to define the atRAL-induced cell death (apoptotic versus necrotic) and validate the protective effect of PG-OiP-DHA (FIG. 6). Cells were incubated for 4 h with atRAL 25 μM, PG-OiP-DHA (compound 13b) 40 μM, or both. Treated ARPE-19 were labeled with Annexin V-FITC (A) and propidium iodide (PI) to separate by flow cytometry healthy cells (no labeling), early apoptosis (A+ and PI−) and necrotic cells (A+ and PI+). In CTL or PG-OiP-DHA-treated cells only 6 to 10% died. After 4 h atRAL, cell death reached 46%, mainly at necrotic stage (41%).

ARPE-19 cell lines [1] = conditions: for % Survival: untreated cells = 100; for cell survival: text summary of Table 1, AtR 25 μM
Protocol: The biological assay is based on the measure of cell survival after treatment with the lipophenol prior incubation (pre-incubation process) with the carbonyl stressor AtR. The toxic AtR concentration (25 μM) was determined to reduce cell survival by 60 to 70%. Results are expressed as % of cell survival in treated (lipophenol/all-trans-retinal) vs untreated cells (taken as 100%).
ARPE-19 cells were settled in 96-well plates (3×10^4 cells/well) and cultured 24 h to reach confluence before drug treatment. Cell cultures received a serum-free medium containing drugs at different concentrations (10-40 μM) for one hour and trans-retinal (25 μM) was added for 4 more hours before rinsing with medium. The viability of cells in triplicate samples was determined 16-20 h after with a MTT colorimetric assay. After 2 h incubation with 0.5 mg/ml MU, insoluble purple formazan produced was dissolved in DMSO. The absorbance at 570 nm and 655 nm of individual wells was measured by a microplate reader (BioRad 550).

ARPE-19 cell lines [2] = assay: ARPE-19 cell survival, co-treatment with atRAL 25 μM; assay type: cell-based
Protocol: Co-treatment were performed with lipophenols onto ARPE-19 (FIG. 4). Incubation for 4 h with atRAL decreased cell viability to 35%. The protection of ARPE-19 by phloroglucinol (PG) was dose-dependent but weak (less than 10%). In contrast, most of the PG derivatives were more protective, in particular the presence of two or three DHA linked to PG provided a strong protection (up to 73% survival), as well as the mono-alkylation (methyl and isopropyl) were sufficient to protect 60% of cells. PG-OiP-DHA was confirmed to be among the most efficient (74%).

[3] = tested on: mitochondrial respiratory chain (MRC) complex; assay: Mitochondrial respiratory chain complex enzymatic activities and protein expression; assay type: cell-based; conditions: atRAL treatment with PG-OiP-DHA (FIG. 5, FIG. 14)
Description: In a cellular context, PG-OiP-DHA (compound 13b) has been shown able to partially restore mitochondrial oxidative respiration impaired by the atRAL (example 10). Because this repair might be produced by targeting the whole oxidative chain or each individual respiratory complex, this potency was further investigated by measuring the intrinsic activity of each mitochondrial respiratory chain (MRC) complex (enzymology) and their level of protein expression (FIG. 5). […] This was supported by the loss of MRC protein expression.
Several experiments were made to validate the efficacy of PG-OiP-DHA in the protection of the mitochondrial activity (FIG. 14).

[4] = tested on: neural retina cell cultures; assay: Cytoprotection in neural retina cell cultures exposed to atRal (MTT); assay type: cell-based; conditions: 13b 10 to 100 μM, atRal 50-75-100 μM added 1 h after, 4 h co-incubation
Protocol: The effect of compound 13b on cell viability was examined after co-incubation with atRal. Cell cultures were incubated with 13b (10 to 100 μM) and atRal (50-75-100 μM) was added 1 h after for a 4 h co-incubation. Cells were then cultured in serum-free medium for 16-20 h and their viability was determined with a MTT assay.

RPE primary cells [5] = assay: Primary RPE cultures, pre-treatment 24 h, H2O2 450 μM 2 h, cell viability assay; assay type: cell-based; conditions: H2O2 450 μM 2 h (FIG. 7)
Protocol: a. Pre-treatment 24 h, H2O2 450 μM 2 h; cell viability assay

RPE primary cells [6] = assay: Primary RPE cultures, co-incubation 4 h with atRAL 25 μM, cell viability assay; assay type: cell-based; conditions: co-incubation 4 h with atRAL 25 μM (FIG. 9)
Protocol: c. Co-incubation 4 h with atRAL 25 μM; cell viability assay
To compare the anti-carbonyl efficacies of phloroglucinol (22% gain of survival) and PG-OiP-DHA (69%) in a condition to probe their scavenging properties in primary RPE cells (FIG. 9).

RPE primary cells [7] = assay: Primary RPE cultures, pre-treatment 24 h, atRAL 25 μM 4 h, cell viability assay; assay type: cell-based; conditions: atRAL 25 μM 4 h (FIG. 8)
Protocol: b. Pre-treatment 24 h, atRAL 25 μM 4 h; cell viability assay

[8] = compound 10 μM 1 h, then AtR 25 μM 4 h, MTT after 16-20 h
[9] = compound 40 μM 1 h, then AtR 25 μM 4 h, MTT after 16-20 h
[10] = co-incubation atRAL 25 μM + PG-OiP-DHA 40 μM

SMILES: CC1=C(/C=C/C(C)=C/C=C/C(C)=C/C=O)C(C)(C)CCC1 [AtR, all-trans-retinal, reference compound]
- inhibition of the activity of complexes CI and CII (complexes CI and CII; 25 μM atRal alone): strongly inhibits
- cell death (ARPE-19; atRAL 25 μM alone): 46%
- necrotic stage cells (ARPE-19; atRAL 25 μM alone): 41%
- % Survival (ARPE-19 cell lines [1]; AtR 25 μM alone): 29.1 ± 5.4%
- cell viability (ARPE-19 cell lines [2]; atRAL 25 μM alone, 4 h): 35%

SMILES: CC/C=C\C/C=C\C/C=C\C/C=C\C/C=C\C/C=C\CCC(=O)Oc1cc(OC(=O)CC/C=C\C/C=C\C/C=C\C/C=C\C/C=C\C/C=C\CC)cc(OC(=O)CC/C=C\C/C=C\C/C=C\C/C=C\C/C=C\C/C=C\CC)c1 [Compound 8, (4,4′,4″,7,7′,7″,10,10′,10″,13,13′,13″,16,16′,16″,19,19′,19″Z)-benzene-1,3,5-triyl tridocosa-4,7,10,13,16,19-hexaenoate]
- % Survival (ARPE-19 cell lines [1]; [8]): 33.3 ± 4.1%
- % Survival (ARPE-19 cell lines [1]; [9]): 47.7 ± 3.2%
- cell survival (ARPE-19 cell lines [1]): 50%

SMILES: CC(C)Oc1cc(O)cc(O)c1 [Compound 9b, 5-isopropoxybenzene-1,3-diol, reference compound]
- % Survival (ARPE-19 cell lines [1]; [8]): 30.6 ± 1.2%
- % Survival (ARPE-19 cell lines [1]; [9]): 32.7 ± 1.8%

SMILES: CC/C=C\C/C=C\C/C=C\C/C=C\C/C=C\C/C=C\CCC(=O)Oc1cc(O)cc(OC)c1 [Compound 13a, (4,7,10,13,16,19 Z)-3-hydroxy-5-methoxyphenyl docosa-4,7,10,13,16, 19-hexaenoate]
- % Survival (ARPE-19 cell lines [1]; [8]): 32.6 ± 3.7%
- % Survival (ARPE-19 cell lines [1]; [9]): 44.9 ± 1.9%
- cell survival (ARPE-19 cell lines [1]): as active as 8

SMILES: CC/C=C\C/C=C\C/C=C\C/C=C\C/C=C\C/C=C\CCC(=O)Oc1cc(O)cc(OC(C)C)c1 [Compound 13b, (4,7,10,13,16,19 Z)-3-hydroxy-5-isopropoxyphenyl docosa-4,7,10,13,16,19-hexaenoate]
- reversal of atRal inhibition of complexes CI and CII (complexes CI and CII; 40 μM 13b with 25 μM atRal): partially reverse this inhibition
- inhibition of the activity of each complex by the compound alone (complexes CI and CII; 40 μM 13b, no atRal): no significant inhibition
- necrotic cells (ARPE-19; [10]): 16%
- total cell death (ARPE-19; [10]): 18%
- preservation of complex II and IV enzymatic activities affected by atRAL [3]: significantly preserved
- reversal of atRal cytotoxicity [4]: robustly reversed
- gain of survival (anti-oxidant efficacy) (RPE primary cells [5]): 20%
- gain of survival (anti-carbonyl efficacy, scavenging) (RPE primary cells [6]): 69%
- gain of survival (anti-carbonyl efficacy) (RPE primary cells [7]): 42%
- % Survival (ARPE-19 cell lines [1]; [8]): 43.2 ± 7.5%
- % Survival (ARPE-19 cell lines [1]; [9]): 66.8 ± 8.6%
- survival (ARPE-19 cell lines [2]; co-treatment with atRAL 25 μM 4 h, doses 5-80 μM (FIG. 4)): 74%

SMILES: CC/C=C\C/C=C\C/C=C\C/C=C\C/C=C\C/C=C\CCC(=O)Oc1ccc(/C=C/c2cc(O)cc(O)c2)cc1 [Compound 20, (4,7,10,13,16,19 Z)-4-((E)-3,5-dihydroxyphenylstyryl)phenyl docosa-4,7,10,13,16,19-hexaenoate]
- protective effect (ARPE-19 cell lines [2]; co-treatment with atRAL 25 μM 4 h (FIG. 4)): very potent

SMILES: CC/C=C\C/C=C\C/C=C\C/C=C\C/C=C\C/C=C\CCC(=O)O [DHA, docosahexaenoic acid, reference compound]
- % Survival (ARPE-19 cell lines [1]; [8]): 23.5 ± 2.7%
- % Survival (ARPE-19 cell lines [1]; [9]): 7.3 ± 5.0%

SMILES: Oc1cc(O)cc(O)c1 [Phloroglucinol, phloroglucinol, reference compound]
- gain of survival (anti-oxidant efficacy) (RPE primary cells [5]): 10%
- gain of survival (anti-carbonyl efficacy, scavenging) (RPE primary cells [6]): 22%
- gain of survival (anti-carbonyl efficacy) (RPE primary cells [7]): 18%
- increase of RPE cell survival (ARPE-19 cell lines [1]; 40 μM, AtR 25 μM): 10%
- % Survival (ARPE-19 cell lines [1]; [8]): 35.5 ± 3.3%
- % Survival (ARPE-19 cell lines [1]; [9]): 41.6 ± 9.2%
- protection of ARPE-19 (ARPE-19 cell lines [2]; co-treatment with atRAL 25 μM, doses 5-80 μM): less than 10%
